Values after ≈ are worked out from the molar mass of the structure shown.
Tests used:
[1] = test system: Escherichia coli; assay: Bactericidal activity against Escherichia coli ATCC 8739 cultured in MH medium assessed as reduction in bacterial survival incubated for 48 hrs by microbroth dilution method; assay type: functional; settings: ATCC 8739, 48 h
[2] = test system: Staphylococcus aureus; assay: Bactericidal activity against methicillin resistant Staphylococcus aureus 6347 cultured in MH medium assessed as reduction in bacterial survival incubated for 48 hrs by microbroth dilution method; assay type: functional; settings: Staphylococcus aureus, 6347, 48 h
[3] = test system: Staphylococcus epidermidis; assay: Bactericidal activity against methicillin resistant Staphylococcus epidermidis ATCC 13199 cultured in MH medium assessed as reduction in bacterial survival incubated for 48 hrs by microbroth dilution method; assay type: functional; settings: ATCC 13199, 48 h
[4] = test system: Pseudomonas aeruginosa; assay: Bactericidal activity against Pseudomonas aeruginosa ATCC 9027 cultured in MH medium assessed as reduction in bacterial survival incubated for 48 hrs by microbroth dilution method; assay type: functional; settings: ATCC 9027, 48 h
[5] = test system: Proteus vulgaris; assay: Antibacterial activity against Proteus vulgaris NCTC 4635 cultured in MH medium assessed as reduction in bacterial growth incubated for 48 hrs by microbroth dilution method; assay type: functional; settings: NCTC 4635, 48 h
[6] = test system: Staphylococcus epidermidis; assay: Bactericidal activity against Staphylococcus epidermidis ATCC 14990 cultured in MH medium assessed as reduction in bacterial survival incubated for 48 hrs by microbroth dilution method; assay type: functional; settings: ATCC 14990, 48 h
[7] = test system: Staphylococcus aureus; assay: Antibacterial activity against methicillin resistant Staphylococcus aureus N315 cultured in MH medium assessed as reduction in bacterial growth incubated for 48 hrs by microbroth dilution method; assay type: functional; settings: N315, 48 h
[8] = test system: Staphylococcus aureus; assay: Bactericidal activity against methicillin resistant Staphylococcus aureus N315 cultured in MH medium assessed as reduction in bacterial survival incubated for 48 hrs by microbroth dilution method; assay type: functional; settings: N315, 48 h
[9] = test system: Streptococcus pneumoniae; assay: Antibacterial activity against Streptococcus pneumoniae cultured in MH medium assessed as reduction in bacterial growth incubated for 48 hrs by microbroth dilution method; assay type: functional
[10] = test system: Staphylococcus epidermidis; assay: Antibacterial activity against methicillin resistant Staphylococcus epidermidis ATCC 13199 cultured in MH medium assessed as reduction in bacterial growth incubated for 48 hrs by microbroth dilution method; assay type: functional; settings: ATCC 13199, 48 h
[11] = test system: Proteus vulgaris; assay: Bactericidal activity against Proteus vulgaris NCTC 4635 cultured in MH medium assessed as reduction in bacterial survival incubated for 48 hrs by microbroth dilution method; assay type: functional; settings: NCTC 4635, 48 h
[12] = test system: Pseudomonas aeruginosa; assay: Antibacterial activity against Pseudomonas aeruginosa ATCC 9027 cultured in MH medium assessed as reduction in bacterial growth incubated for 48 hrs by microbroth dilution method; assay type: functional; settings: ATCC 9027, 48 h
[13] = test system: Escherichia coli; assay: Antibacterial activity against Escherichia coli ATCC 8739 cultured in MH medium assessed as reduction in bacterial growth incubated for 48 hrs by microbroth dilution method; assay type: functional; settings: ATCC 8739, 48 h
[14] = test system: Bacillus spizizenii; assay: Antibacterial activity against Bacillus subtilis ATCC 6633 cultured in MH medium assessed as reduction in bacterial growth incubated for 48 hrs by microbroth dilution method; assay type: functional; settings: ATCC 6633, 48 h
[15] = test system: Staphylococcus aureus; assay: Antibacterial activity against Staphylococcus aureus ATCC 6538 cultured in MH medium assessed as reduction in bacterial growth incubated for 48 hrs by microbroth dilution method; assay type: functional; settings: ATCC 6538, 48 h
[16] = Lipophilicity, log k of the compound at 100 ug/ml by micellar electrokinetic chromatography; assay type: physicochemical
[17] = test system: Serratia marcescens; assay: Antibacterial activity against Serratia marcescens ATCC 12795 cultured in MH medium assessed as reduction in bacterial growth incubated for 48 hrs by microbroth dilution method; assay type: functional; settings: ATCC 12795, 48 h
[18] = test system: Bacillus spizizenii; assay: Bactericidal activity against Bacillus subtilis ATCC 6633 cultured in MH medium assessed as reduction in bacterial survival incubated for 48 hrs by microbroth dilution method; assay type: functional; settings: ATCC 6633, 48 h
[19] = test system: Staphylococcus aureus; assay: Bactericidal activity against Staphylococcus aureus ATCC 6538 cultured in MH medium assessed as reduction in bacterial survival incubated for 48 hrs by microbroth dilution method; assay type: functional; settings: ATCC 6538, 48 h
[20] = test system: Serratia marcescens; assay: Bactericidal activity against Serratia marcescens ATCC 12795 cultured in MH medium assessed as reduction in bacterial survival incubated for 48 hrs by microbroth dilution method; assay type: functional; settings: ATCC 12795, 48 h
[21] = test system: HEK293; assay: Cytotoxicity against human HEK293 cells assessed as changes in cell morphology upto 20 uM incubated for 72 hrs by MTT assay; assay type: cell-based; settings: hek293, 72 h
[22] = test system: HEK293; assay: Cytotoxicity against human HEK293 cells assessed as cell viability upto 20 uM incubated for 72 hrs by MTT assay; assay type: cell-based; settings: hek293, 72 h
[23] = test system: Staphylococcus aureus; assay: Antibacterial activity against methicillin resistant Staphylococcus aureus 6347 cultured in MH medium assessed as reduction in bacterial growth incubated for 48 hrs by microbroth dilution method; assay type: functional; settings: Staphylococcus aureus, 6347, 48 h
[24] = test system: Enterococcus hirae; assay: Antibacterial activity against Enterococcus hirae ATCC 1052 cultured in BHI medium assessed as reduction in bacterial growth incubated for 48 hrs by microbroth dilution method; assay type: functional; settings: ATCC 1052, 48 h
[25] = test system: Staphylococcus epidermidis; assay: Antibacterial activity against Staphylococcus epidermidis ATCC 14990 cultured in MH medium assessed as reduction in bacterial growth incubated for 48 hrs by microbroth dilution method; assay type: functional; settings: ATCC 14990, 48 h
[26] = test system: Enterococcus hirae; assay: Bactericidal activity against Enterococcus hirae ATCC 1052 cultured in BHI medium assessed as reduction in bacterial survival incubated for 48 hrs by microbroth dilution method; assay type: functional; settings: ATCC 1052, 48 h
[27] = test system: Streptococcus pneumoniae; assay: Bactericidal activity against Streptococcus pneumoniae cultured in MH medium assessed as reduction in bacterial survival incubated for 48 hrs by microbroth dilution method; assay type: functional

Structure (SMILES)	MBC [1] [µg/mL]	MBC [2] [µg/mL]	MBC [3] [µg/mL]	MBC [4] [µg/mL]	MIC [5] [µg/mL]	MBC [6] [µg/mL]	MIC [7] [µg/mL]	MBC [8] [µg/mL]	MIC [9] [µg/mL]	MIC [10] [µg/mL]	MBC [11] [µg/mL]	MIC [12] [µg/mL]	MIC [13] [µg/mL]	MIC [14] [µg/mL]	MIC [15] [µg/mL]	log K [16]	MIC [17] [µg/mL]	MBC [18] [µg/mL]	MBC [19] [µg/mL]	MBC [20] [µg/mL]	further results
CCn1cc(C(=O)O)c(=O)c2cc(F)c(N3CC[N+]4(CC3)CN3C(C)=CC(C)=C(C(=O)O)C3=N4)cc21.[Cl-]	8	128	32	> 512	0.25	128	128	128	> 512	32	0.5	256	4	16	64	-0.2721	64	64	128	128	Activity [21]: Non-Toxic; Activity [22]: Non-Toxic; MIC [23]: 64 µg/mL; MIC [24]: > 512 µg/mL; MIC [25]: 64 µg/mL
C[C@@H]1CN(c2c(F)c(N)c3c(=O)c(C(=O)O)cn(C4CC4)c3c2F)C[C@H](C)N1 [SPARFLOXACIN]	0.032 (≈ 0.0815 µM)	0.063 (≈ 0.161 µM)	0.032 (≈ 0.0815 µM)	0.125 (≈ 0.319 µM)	0.004 (≈ 0.0102 µM)	0.125 (≈ 0.319 µM)	0.125 (≈ 0.319 µM)	0.125 (≈ 0.319 µM)	0.25 (≈ 0.637 µM)	0.032 (≈ 0.0815 µM)	0.008 (≈ 0.0204 µM)	0.125 (≈ 0.319 µM)	0.016 (≈ 0.0408 µM)	0.063 (≈ 0.161 µM)	0.125 (≈ 0.319 µM)	0.1161	0.5 (≈ 1.27 µM)	0.063 (≈ 0.161 µM)	0.25 (≈ 0.637 µM)	1 (≈ 2.55 µM)	MBC [26]: 32 µg/mL (≈ 81.5 µM); MBC [27]: 128 µg/mL (≈ 326 µM); MIC [23]: 0.063 µg/mL (≈ 0.161 µM); MIC [24]: 32 µg/mL (≈ 81.5 µM); MIC [25]: 0.125 µg/mL (≈ 0.319 µM)

Reference: ChEMBL document CHEMBL4396913, “Synthesis and biological evaluation of hybrid quinolone-based quaternary ammonium antibacterial agents” (Eur J Med Chem, 2019)
